From ChEMBL document CHEMBL3714730, “Diaminopyrimidines as P2X3 and P2X2/3 modulators” (2009)
Activity calls are given as the source filed them. The rule behind the calls is not given here.

Legend:
[1] = biological target: T1, P2X purinoceptor 3 (Rattus norvegicus) (UniProt P49654); assay: Antagonist activity against rat P2X3 receptor expressed in CHOK1 cells assessed as inhibition of alpha,beta-meATP-induced calcium response incubated for 20 mins by Fluo-3AM dye based FLIPR assay; type: functional, cell-based; settings: CHO-K1
T1 sequence (whole entry): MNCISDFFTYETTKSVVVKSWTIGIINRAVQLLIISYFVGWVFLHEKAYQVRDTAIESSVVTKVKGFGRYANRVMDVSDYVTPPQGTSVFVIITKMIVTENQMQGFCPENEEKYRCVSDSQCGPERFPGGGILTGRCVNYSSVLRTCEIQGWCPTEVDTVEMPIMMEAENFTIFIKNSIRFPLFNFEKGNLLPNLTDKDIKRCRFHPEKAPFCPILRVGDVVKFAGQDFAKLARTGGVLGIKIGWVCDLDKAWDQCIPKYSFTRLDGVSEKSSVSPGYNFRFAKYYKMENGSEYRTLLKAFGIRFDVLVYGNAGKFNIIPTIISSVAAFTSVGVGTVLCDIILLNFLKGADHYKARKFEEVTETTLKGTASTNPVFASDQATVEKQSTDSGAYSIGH

[2] = biological target: P2X2/P2X3 heterotrimeric receptor (Homo sapiens) (UniProt Q9UBL9+P56373); assay: Antagonist activity against human P2X2/3 receptor expressed in CHOK1 cells assessed as inhibition of alpha,beta-meATP-induced calcium response incubated for 20 mins by Fluo-3AM dye based FLIPR assay; type: functional, cell-based; settings: CHO-K1

inhibition [1]	inhibition [2]	Structure (SMILES)
Active	Active	C#Cc1cc(Oc2cnc(NCCO)nc2N)c(C(C)C)cc1OC
Active	Active	COc1cc(C(C)C)c(Oc2cnc(N)nc2N)cc1C#Cc1ccsc1
Active	Active	CC#Cc1cc(Oc2cnc(N)nc2N)c(C(C)C)cc1F
Active	Active	C#Cc1cc(Oc2cnc(N)nc2N)c(C(C)C)cc1OCc1cccc(F)c1
Active	Active	COc1cc(C(C)C)c(Oc2cnc(N)nc2N)cc1C#C[Si](C)(C)C
Active	Active	COc1cc(C(C)C)c(Oc2cnc(N)nc2N)cc1C#Cc1cccnc1
Active	Active	COc1cc(C(C)C)c(Oc2cnc(N)nc2N)cc1C#CCCO
Active	Active	C#Cc1cc(Oc2cnc(N)nc2N)c(C(C)C)cc1OCCO
Active	Active	C#Cc1cc(Oc2cnc(N)nc2N)c(C(C)C)cc1F
Active	Active	COc1cc(C(C)C)c(Oc2cnc(N)nc2N)cc1C#CCO
Active	Active	CC#Cc1cc(Oc2cnc(N)nc2N)c(C(C)C)cc1OC
Active	Active	COc1cc(C(C)C)c(Oc2cnc(N)nc2N)cc1C#Cc1ccccc1
Active	Active	C#Cc1cc(Oc2cnc(N)nc2N)c(C(C)C)cc1Cl
Active	Active	C#Cc1ccc(I)c(Oc2cnc(N)nc2N)c1
Active	Active	C#Cc1cc(Oc2cnc(NCCN(C)C)nc2N)c(C(C)C)cc1OC
Active	Active	COc1cc(C(C)C)c(Oc2cnc(N)nc2N)cc1C#CC1CC1
Active	Active	C#Cc1cc(OC)c(I)cc1Oc1cnc(N)nc1N
Active	Active	C#Cc1cc(Oc2cnc(NCC(C)O)nc2N)c(C(C)C)cc1OC (configuration not stated)
Active	Active	CCCC#Cc1cc(Oc2cnc(N)nc2N)c(C(C)C)cc1OC
Active	Active	C#Cc1cc(Oc2cnc(N)nc2N)c(C(C)C)cc1OC
Active	Active	C#Cc1cc(Oc2cnc(N)nc2N)c(C#C)cc1OC

inhibition [1]	inhibition [2]	Structure (SMILES)
Active	Active	C#Cc1cc(Oc2cnc(NCCN3CCCCC3)nc2N)c(C(C)C)cc1OC
Active	Active	C#Cc1cc(OC)c(C(C)C)c(Oc2cnc(N)nc2N)c1
Active	Active	C#Cc1cc(Oc2cnc(NC3CCOCC3)nc2N)c(C(C)C)cc1OC
Active	Active	COc1cc(C(C)C)c(Oc2cnc(N)nc2N)cc1C#CCCC#N
Active	Active	COc1cc(C(C)C)c(Oc2cnc(N)nc2N)cc1C#CCCCO
Active	Active	C#Cc1cc(Cc2cnc(N)nc2N)c(C(C)C)cc1OC
Active	Active	COc1cc(C(C)C)c(Oc2cnc(N)nc2N)cc1C#Cc1cncn1C
Active	Active	C#Cc1cc(Oc2cnc(NC(C)CO)nc2N)c(C(C)C)cc1OC (configuration not stated)
Active	Active	C#Cc1cc(Oc2cnc(NCCCO)nc2N)c(C(C)C)cc1OC
Active	Active	C#Cc1ccc(C(C)C)c(Oc2cnc(N)nc2N)c1
Active	Active	C#Cc1cc(Oc2cnc(NC(CO)CO)nc2N)c(C(C)C)cc1OC
Active	Active	C#Cc1cc(Oc2cnc(N)nc2N)c(CC)cc1OC
Active	Active	COCC#Cc1cc(Oc2cnc(N)nc2N)c(C(C)C)cc1OC
Active	Active	CNCC#Cc1cc(Oc2cnc(N)nc2N)c(C(C)C)cc1OC
Active	Active	C#Cc1ccc(C#C)c(Oc2cnc(N)nc2N)c1
Active	Active	C#Cc1cc(Oc2cnc(NC3CCN(S(C)(=O)=O)CC3)nc2N)c(C(C)C)cc1OC
Active	Active	COc1cc(I)cc(Oc2cnc(N)nc2N)c1C(C)C
Active	Active	COc1cc(C(C)C)c(Oc2cnc(N)nc2N)cc1C#Cc1ccccn1
Active	Active	C#Cc1cc(Oc2cnc(NCCN3CCOCC3)nc2N)c(C(C)C)cc1OC
Active	Active	COc1cc(C(C)C)c(Oc2cnc(N)nc2N)cc1C#Cc1ccncc1
